Data: PubChem BioAssay (NCI)
“And” between values parts separate entries of the source, which are not always exact repeats. Identical values can stand only once.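 1) Cells in 96-well plates. 2) Compound, 48 h, 5 concentrations. 3) Linear interpolation between surrounding doses. 4) Unreached endpoint = highest concentration. GI50 = concentration required for 50% inhibition of growth. TGI: total growth inhibition.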

Tests used:
Experiment in all cases: inhibition of tumour cell growth, NCI panel, 48 h
[1] = tested on: OVCAR-4 ovarian
[2] = tested on: CAKI-1 renal
[3] = tested on: SK-MEL-5 melanoma
[4] = tested on: SF-539 CNS
[5] = tested on: SW-620 colon
[6] = tested on: UO-31 renal
[7] = tested on: SNB-19 CNS
[8] = tested on: NCI-H460 lung
[9] = tested on: HOP-62 NSCLC
[10] = tested on: IGROV1 ovarian

Structure (SMILES)	TGI [1]	TGI [2]	TGI [3]	TGI [4]	TGI [5]	TGI [6]	TGI [7]	TGI [8]	TGI [9]	TGI [10]	GI50 [1]	GI50 [2]	GI50 [3]	GI50 [4]	GI50 [5]	GI50 [6]	GI50 [7]	GI50 [8]	GI50 [9]	GI50 [10]
C=C=C(C(=O)OC)S(=O)c1ccc([N+](=O)[O-])cc1[N+](=O)[O-] (stereo not given)	63.6 µM	63.1 µM	> 100 µM	55.3 µM	36.3 µM	98.2 µM	> 100 µM	> 91.2 µM	> 82.5 µM	97.5 µM	–	–	–	–	–	–	–	–	–	–
Nc1ccc(S(=O)(=O)NCc2nccs2)cc1	95.7 µM	84.6 µM	29.6 µM	36.2 µM	> 100 µM	55.1 µM	> 100 µM	> 100 µM	> 100 µM	56.8 µM	–	–	–	–	–	–	–	–	–	–
O=Cc1ccc(-c2cccs2)s1	> 77 µM	49.7 µM	> 88.9 µM	> 100 µM	> 100 µM	> 100 µM	> 100 µM	> 92.4 µM	> 100 µM	47.4 µM	–	–	–	–	–	–	–	–	–	–
C[N+]1(C)C/C(=C\c2ccncc2)C(=O)/C(=C/c2ccncc2)C1	> 100 µM	> 100 µM	> 100 µM	> 100 µM	> 100 µM	> 100 µM	> 100 µM	> 100 µM	> 100 µM	> 100 µM	–	–	–	–	–	–	–	–	–	–
CCOc1c(Cl)cc(CNC(C)C(O)c2ccccc2)cc1OC (stereo not given)	87.4 µM	54.7 µM	30.6 µM	34 µM	58.1 µM	89.6 µM	> 100 µM	35.9 µM	> 100 µM	> 100 µM	21.6 µM	15.1 µM	16.6 µM	16.8 µM	22.8 µM	18 µM	32.7 µM	18.3 µM	31 µM	70.6 µM
COc1cc(Br)c(C=Nc2cccc3ccc(OS(=O)(=O)c4cccc([N+](=O)[O-])c4)cc23)cc1OC	> 100 µM	> 100 µM	> 100 µM	39.5 µM	> 100 µM	> 100 µM	> 100 µM	> 100 µM	> 100 µM	> 100 µM	–	–	–	–	–	–	–	–	–	–
Nc1nc(CCC(=O)Nc2cccc(C(F)(F)F)c2)cc(-c2ccc3ccccc3c2)n1	> 100 µM	> 100 µM	> 100 µM	> 100 µM	> 100 µM	> 100 µM	> 100 µM	> 100 µM	> 100 µM	> 100 µM	–	–	–	–	–	–	–	–	–	–
CCOC(=O)c1cc(/C=C/C(C)=C/C(=O)OC)n(C)c1C	> 100 µM	> 100 µM	> 100 µM	> 100 µM	> 100 µM	> 100 µM	> 100 µM	> 100 µM	> 100 µM	> 100 µM	–	–	–	–	–	–	–	–	–	–
O=[N+]([O-])c1ccc2c(c1)[O][Sn][O]2	> 150 µg/mL	> 150 µg/mL	> 150 µg/mL	> 150 µg/mL	> 150 µg/mL	> 150 µg/mL	> 150 µg/mL	> 150 µg/mL	> 150 µg/mL	> 150 µg/mL	> 150 µg/mL	104 µg/mL	75.8 µg/mL	50.1 µg/mL	114 µg/mL	125 µg/mL	55.2 µg/mL	69.5 µg/mL	> 150 µg/mL	115 µg/mL
COC(=O)c1nc(N)[nH]c(=O)c1CCCCCc1c(C(=O)OC)nc(N)[nH]c1=O	> 50 µM	> 50 µM	> 50 µM	> 50 µM	> 50 µM	> 50 µM	> 50 µM	> 50 µM	> 50 µM	> 50 µM	–	–	–	–	–	–	–	–	–	–
CN[C@@H]1C[C@H]2O[C@@](C)([C@@H]1OC)n1c3ccccc3c3c4c(c5c6ccccc6n2c5c31)C(=O)N[C@@H]4O	–	0.0229 µM	0.766 µM	0.0314 µM and 0.0577 µM	0.3 µM and 1.88 µM	0.0645 µM	0.161 µM and 0.77 µM	0.3 µM and 1.47 µM	0.17 µM and 0.334 µM	0.0617 µM and 0.341 µM	0.0286 µM	–	–	0.0196 µM	0.147 µM	–	0.0502 µM	–	0.0401 µM	0.0129 µM and 0.0461 µM
CCOC(=O)CC1NC(=O)CS1 (stereo not given)	> 100 µM	> 100 µM	> 100 µM	> 100 µM	37.4 µM	> 100 µM	> 100 µM	> 100 µM	> 100 µM	> 100 µM	–	–	–	–	–	–	–	–	–	–
Cc1ccc(S(=O)(=O)N=Nc2c(O)[nH]c3c(Cl)cc(Cl)cc23)cc1	> 100 µM	> 100 µM	> 100 µM	> 100 µM	> 100 µM	> 100 µM	> 100 µM	> 100 µM	> 100 µM	> 100 µM	–	–	–	–	–	–	–	–	–	–
C[C-](O)O.O/C(=C\[C-](O)c1ccccc1)c1ccccc1.O/C(=C\[C-](O)c1ccccc1)c1ccccc1.[Nd+3] (stereo not given)	> 100 µM	42.2 µM	18 µM	25.5 µM	> 100 µM	16 µM	50 µM	71 µM	15.7 µM	> 100 µM	15.9 µM	11.9 µM	5.22 µM	5.5 µM	6.94 µM	3.73 µM	7.83 µM	4.99 µM	3.1 µM	14.1 µM
CN(C)C(=O)O[C@@H]1CN[C@@H](C#Cc2cc3ncnc(Nc4ccc(OCc5cccc(F)c5)c(Cl)c4)c3s2)C1	> 25 µM	> 25 µM	> 25 µM	> 25 µM	> 25 µM	> 20.9 µM	> 25 µM	> 25 µM	> 25 µM	> 25 µM	> 25 µM	5.87 µM	> 25 µM	8.58 µM	> 25 µM	5.22 µM	> 25 µM	8.33 µM	> 25 µM	13.1 µM
Oc1ccccc1-c1nc2c3ccccc3c3ccccc3c2[nH]1	25.3 µM	9.44 µM	24.4 µM	21.2 µM	22.4 µM	14.6 µM	24.9 µM	12.1 µM	15 µM	14.4 µM	12.7 µM	1.67 µM	12.1 µM	9.28 µM	10.6 µM	2.28 µM	12.4 µM	3.39 µM	3.93 µM	0.0614 µM
CNC(=S)N/N=C/c1ccc([N+](=O)[O-])s1	> 10 µM	> 10 µM	> 10 µM	> 10 µM	> 10 µM	> 10 µM	> 10 µM	> 10 µM	> 10 µM	> 10 µM	–	–	–	–	–	–	–	–	–	–
